Test results taken from PubChem BioAssay AID192 (DTP/NCI, 2004).
Where “and” joins values, the source holds several entries; their conditions need not be identical. Equal values may be shown once. Toxic doses and inconclusive results are not listed. Rule for the calls: active = survival T/C of 150% or more; inactive = T/C below 125% in these data.

Test system: BDF1 mice, B16 melanoma ip, median survival T/C
Assay: NCI In Vivo Anticancer Drug Screen. Data for tumor model B16 Melanoma (intraperitoneal) in B6D2F1 (BDF1) mice
Conditions: endpoint: median survival time, higher = longer survival
Procedure, shortened: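 Antitumor activity is assessed in mice bearing a transplanted tumor, with survival or tumor size compared against vehicle-dosed controls and expressed as T/C.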

[1] = dose: 50.0 mg/kg/injection, schedule: Q01DX009 (ip), vehicle: Klucel (hydroxypropylcellulose) (HPC)
[2] = dose: 100.0 mg/kg/injection, schedule: Q01DX009 (ip), vehicle: Klucel (hydroxypropylcellulose) (HPC)
[3] = dose: 50.0 mg/kg/injection, schedule: Q01DX009 (ip), vehicle: saline
[4] = dose: 25.0 mg/kg/injection, schedule: Q01DX009 (ip), vehicle: Klucel (hydroxypropylcellulose) (HPC)
[5] = dose: 100.0 mg/kg/injection, schedule: Q01DX009 (ip), vehicle: saline with Tween-80
[6] = dose: 200.0 mg/kg/injection, schedule: Q01DX009 (ip), vehicle: saline with Tween-80
[7] = dose: 400.0 mg/kg/injection, schedule: Q01DX009 (ip), vehicle: saline with Tween-80
[8] = dose: 200.0 mg/kg/injection, schedule: Q01DX009 (ip), vehicle: Klucel (hydroxypropylcellulose) (HPC)
[9] = dose: 12.5 mg/kg/injection, schedule: Q01DX009 (ip), vehicle: saline with Tween-80
[10] = dose: 25.0 mg/kg/injection, schedule: Q01DX009 (ip), vehicle: saline with Tween-80
[11] = dose: 50.0 mg/kg/injection, schedule: Q01DX009 (ip), vehicle: saline with Tween-80
[12] = dose: 25.0 mg/kg/injection, schedule: Q04DX003 (ip), vehicle: Klucel (hydroxypropylcellulose) (HPC)
[13] = dose: 6.25 mg/kg/injection, schedule: Q01DX009 (ip), vehicle: saline
[14] = dose: 12.5 mg/kg/injection, schedule: Q01DX009 (ip), vehicle: saline
[15] = dose: 25.0 mg/kg/injection, schedule: Q01DX009 (ip), vehicle: saline
[16] = dose: 400.0 mg/kg/injection, schedule: Q01DX009 (ip), vehicle: Klucel (hydroxypropylcellulose) (HPC)
[17] = dose: 6.25 mg/kg/injection, schedule: Q01DX009 (ip), vehicle: Klucel (hydroxypropylcellulose) (HPC)
[18] = dose: 12.5 mg/kg/injection, schedule: Q01DX009 (ip), vehicle: Klucel (hydroxypropylcellulose) (HPC)
[19] = dose: 12.5 mg/kg/injection, schedule: Q04DX003 (ip), vehicle: saline with Tween-80
[20] = dose: 25.0 mg/kg/injection, schedule: Q04DX003 (ip), vehicle: saline with Tween-80
[21] = dose: 50.0 mg/kg/injection, schedule: Q04DX003 (ip), vehicle: saline with Tween-80
[22] = dose: 100.0 mg/kg/injection, schedule: Q04DX003 (ip), vehicle: saline with Tween-80

Measured: T/C

CC(=O)NCC1(c2ccccc2)CCN(CCCC(=O)c2ccc(F)cc2)CC1
inactive: [1] 93 % of control | [2] 106 % of control

C/C=C\C#N
inactive: [3] 107 % of control | dose: 100.0 mg/kg/injection, schedule: Q01DX009 (ip), vehicle: saline 107 % of control

C1CC[N-]CC1.CC(=N\O)/C(C)=N/O.CC(=N\O)/C(C)=N/O.C[CH-]CC.[Co+2]
inactive: [4] 102 % of control | [1] 108 % of control

COc1cccc(Cc2ccncc2)c1OC
inactive: dose: 25.0 mg/kg/injection, schedule: Q01DX009 (ip), vehicle: water 104 % of control | dose: 50.0 mg/kg/injection, schedule: Q01DX009 (ip), vehicle: water 98 % of control | dose: 100.0 mg/kg/injection, schedule: Q01DX009 (ip), vehicle: water 98 % of control

CCC(C)C(C(=O)O)c1ccccc1 (stereo not given)
inactive: [5] 107 % of control | [6] 99 % of control | [7] 93 % of control

OC1COC(c2ccco2)OC1 (stereo not given) (tested in a mixture with another compound)
inactive: [1] 100 % of control | [2] 100 % of control | [8] 106 % of control

Cc1ccc([N+](=O)[O-])cc1NC(=O)COc1ccc(Cl)cc1Cl
inactive: dose: 75.0 mg/kg/injection, schedule: Q01DX009 (ip), vehicle: Klucel (hydroxypropylcellulose) (HPC) 90 % of control | dose: 150.0 mg/kg/injection, schedule: Q01DX009 (ip), vehicle: Klucel (hydroxypropylcellulose) (HPC) 88 % of control | dose: 300.0 mg/kg/injection, schedule: Q01DX009 (ip), vehicle: Klucel (hydroxypropylcellulose) (HPC) 86 % of control

O=C1NC(=O)C(=Cc2cc3c(cc2Br)OCO3)C(=O)N1
inactive: [9] 97 % of control | [10] 94 % of control | [11] 94 % of control

COC1C=COC2(C)Oc3c(C)c(O)c4c(c3C2=O)/C(=N/C2CCC(O)OC2C)C=C(NC(=O)/C(C)=C\C(=O)C2CC2C(O)C(C)C(O)C(C)C(OC(C)=O)C1C)C4=O (stereo not given)
inactive: dose: 4.6 mg/kg/injection, schedule: Q01DX009 (ip), vehicle: saline with Tween-80 98 % of control | dose: 18.5 mg/kg/injection, schedule: Q01DX009 (ip), vehicle: saline with Tween-80 97 % of control

CNC(Cc1ccccc1)C1CCCCC1 (stereo not given)
inactive: dose: 6.25 mg/kg/injection, schedule: Q04DX003 (ip), vehicle: Klucel (hydroxypropylcellulose) (HPC) 102 % of control | dose: 12.5 mg/kg/injection, schedule: Q04DX003 (ip), vehicle: Klucel (hydroxypropylcellulose) (HPC) 100 % of control | [12] 96 % of control

C=C(Br)CNS(C)(=O)=O
inactive: [13] 120 % of control | [14] 110 % of control | [15] 113 % of control

CN(C)C(=S)S
inactive: [4] 118 % of control | [12] 100 % of control | [1] 103 % of control | [11] 89 % of control | dose: 50.0 mg/kg/injection, schedule: Q04DX003 (ip), vehicle: Klucel (hydroxypropylcellulose) (HPC) 105 % of control | [2] 91 % of control | [5] 105 % of control | dose: 100.0 mg/kg/injection, schedule: Q04DX003 (ip), vehicle: Klucel (hydroxypropylcellulose) (HPC) 94 % of control | [8] 116 % of control | [6] 98 % of control | dose: 200.0 mg/kg/injection, schedule: Q04DX003 (ip), vehicle: Klucel (hydroxypropylcellulose) (HPC) 94 % of control | [16] 98 % of control | [7] 89 % of control | dose: 400.0 mg/kg/injection, schedule: Q04DX003 (ip), vehicle: Klucel (hydroxypropylcellulose) (HPC) 97 % of control

Clc1sc2ccccc2c1Cl
inactive: [17] 93 % of control | [18] 92 % of control | [4] 91 % of control | [1] 90 % of control

Cn1c2c(sc1=O)CCC2
inactive: [1] 113 % of control | [2] 100 % of control | [8] 97 % of control

CCCCOc1ccc(NC(N)=Nc2ccc(Cl)cc2)cc1
inactive: dose: 3.12 mg/kg/injection, schedule: Q01DX009 (ip), vehicle: saline with Tween-80 95 % of control | dose: 6.25 mg/kg/injection, schedule: Q01DX009 (ip), vehicle: saline with Tween-80 88 % of control | [9] 90 % of control | [10] 86 % of control

CCCOP(=S)(N1CC1)N1CC1
inactive: [10] 91 % of control | [11] 99 % of control | [5] 91 % of control | [6] 103 % of control

Brc1cc(Br)c(-c2c(Br)cc(Br)cc2Br)c(Br)c1
inactive: [2] 102 % of control | [8] 88 % of control

COc1cc(C(=O)c2cc3c(cc2C)OCO3)cc(OC)c1OC
inactive: [17] 105 % of control | [18] 97 % of control and 115 % of control | [4] 98 % of control and 103 % of control | [1] 101 % of control and 112 % of control | [2] 109 % of control | [8] 104 % of control

O=C1c2ccccc2S(=O)c2ccccc21
inactive: [2] 97 % of control | [8] 93 % of control

CC(NC(=O)C(C)NC(=O)OC(C)(C)C)C(=O)O (stereo not given)
inactive: [10] 92 % of control | [11] 94 % of control | [5] 93 % of control | [6] 92 % of control

CCNCCCOCC
inactive: dose: 12.5 mg/kg/injection, schedule: Q04DX003 (ip), vehicle: saline 104 % of control | dose: 25.0 mg/kg/injection, schedule: Q04DX003 (ip), vehicle: saline 102 % of control | dose: 50.0 mg/kg/injection, schedule: Q04DX003 (ip), vehicle: saline 102 % of control

N#CNN=Nc1cc(Cl)c(Cl)c(Cl)c1
inactive: [14] 120 % of control | [15] 111 % of control

CN(C)CCCn1c2c(c3ccccc31)CCCCCC2
inactive: dose: 3.12 mg/kg/injection, schedule: Q01DX009 (ip), vehicle: saline 119 % of control | [13] 100 % of control | [14] 100 % of control | [15] 113 % of control | [3] 94 % of control

Cc1cccc(Cl)c1NC(=O)Cn1cccc1
inactive: [4] 108 % of control | [1] 108 % of control | [2] 118 % of control

O=C1OC(=O)C2C3C=CC(C3=C(c3ccccc3)c3ccccc3)C12 (stereo not given)
inactive: dose: 0.78 mg/kg/injection, schedule: Q04DX009 (ip), vehicle: Klucel (hydroxypropylcellulose) (HPC) 115 % of control | dose: 1.56 mg/kg/injection, schedule: Q04DX009 (ip), vehicle: Klucel (hydroxypropylcellulose) (HPC) 121 % of control | dose: 3.13 mg/kg/injection, schedule: Q04DX009 (ip), vehicle: Klucel (hydroxypropylcellulose) (HPC) 106 % of control

N/N=C(\N)c1nn(C2OC(CO)C(O)C2O)c2ncnc(N)c12 (stereo not given)
inactive: dose: 40.0 mg/kg/injection, schedule: Q01DX005 (ip), vehicle: saline 91 % of control | dose: 80.0 mg/kg/injection, schedule: Q01DX005 (ip), vehicle: saline 95 % of control | dose: 160.0 mg/kg/injection, schedule: Q01DX005 (ip), vehicle: saline 100 % of control

O=S(=O)(Nc1ccc(F)cc1)c1ccccc1
inactive: [2] 96 % of control | [8] 99 % of control | [16] 97 % of control

CCC(=O)Oc1[nH]c(C)c(C(C)=O)c1C
inactive: [5] 102 % of control | [6] 100 % of control | [7] 95 % of control

Cc1cc(Cl)ccc1NC(=O)c1ccc([N+](=O)[O-])cc1
inactive: [11] 104 % of control | [5] 100 % of control | [6] 103 % of control

CCCCN(CCCC)C(=O)c1[nH]cnc1/N=N\N(C)C
inactive: [19] 110 % of control | [20] 92 % of control | [21] 117 % of control | [22] 93 % of control

CCOC(=O)CNC(=O)Sc1ccc(C(C)(C)C)cc1
inactive: [18] 97 % of control | [4] 101 % of control | [1] 104 % of control | [2] 106 % of control | [8] 106 % of control | [16] 120 % of control

CCCCNC(=O)Nc1cc(C)ccc1C
inactive: [2] 100 % of control | [8] 100 % of control

CCOC(=O)C1=C(O)c2c(sc(C)c2C)N(S(=O)(=O)c2ccc(C)cc2)CC1
inactive: [19] 116 % of control | [20] 113 % of control | [21] 111 % of control | [22] 111 % of control | dose: 200.0 mg/kg/injection, schedule: Q04DX003 (ip), vehicle: saline with Tween-80 108 % of control

CC(O)C(O)C(O)C(/C=N\N=C(/N)[S-])=N/N=C(\N)[S-].[Pt+2] (stereo not given)
inactive: [5] 95 % of control | [6] 102 % of control | [7] 105 % of control
